Biological target: T1, HCV-NS5b (Hepatitis C virus genotype 1b, UniProt Q9WMX2)
T1 construct: The cloned fragment was missing the C terminus 21 amino acid residues; (His)6 (C); made in house; host or cells: XL-1 cells (E. coli)
Experiment: HCV-NS5b Enzyme Assay
Format: biochemical
Details: 1 μM test compound; incorporation of [3H]-UTP, 37° C., 2 hours
Excerpt: The coding sequence of NS5b protein was cloned by PCR from pFKI389luc/NS3-3′/ET as described by Lohmann, V., et al. (1999) Science 285, 110-113 using the following primers: • […] (SEQ. ID. NO. 1) • […] (SEQ. ID. NO. 2)
The cloned fragment was missing the C terminus 21 amino acid residues. The cloned fragment is inserted into an IPTG-inducible expression plasmid that provides an epitope tag (His)6 at the carboxy terminus of the protein.
The recombinant enzyme was expressed in XL-1 cells and after induction of expression, the protein was purified using affinity chromatography on a nickel-NTA column. Storage condition is 10 mM Tris-HCl pH 7.5, 50 mM NaCl, 0.1 mM EDTA, 1 mM DTT, 20% glycerol at −20° C.
The polymerase activity was assayed by measuring incorporation of radiolabeled UTP into a RNA product using a biotinylated, heteropolymeric template, which includes a portion of the HCV genome. Typically, the assay mixture […] contains 10 mM Tris-HCl (pH 7.5), 5 mM MgCl2, 0.2 mM EDTA, 10 mM KCl, 1 unit/μL RNAsin. 1 mM DTT, 10 μM each of NTP, including [^3H]-UTP, and 10 ng/μL biotinylated heteropolymeric template. 20× test compound in 2 μl's was then added as a 100% DMSO solution to achieve a final DMSO concentration of 5%. For IC50 determination a 10-point dose response was used. The compounds were serial diluted 2-fold […]. Typically for IC50's, compounds were tested starting at 50 uM or 2 μm depending on the potency. Reactions were started with addition of 10×NS5B in 4 μl's and allowed to incubate at 37° C. for 2 hours. Reactions were quenched with 8 μL of 100 mM EDTA and reaction mixtures (30 μL) were transferred to streptavidin-coated scintillation proximity microtiter plates (FlashPlates) and incubated at 4° C. overnight. Incorporation of radioactivity was determined by scintillation counting (cpm). The % Inhibition at a particular concentration was determined using the following equation, % Inhibition=100−[100*(cpm with inhibitor−bg)/(cpm with no inhibitor−bg)] where bg was the background with no enzyme.

Compound | inhibition at 1 µM [%] | % inhibition @ 1 μM [%]
COc1ccc(-c2ccc(Cl)cc2)c(-c2ccc3cc(-c4c(C5CCCCC5)c5ccc(C(=O)O)cc5n4CC(=O)N4CCNCC4)ccc3n2)c1 [Compound 204, 1-[N-piperazinylcarbonylmethyl]-2-[2-(4′-chloro-4-methoxy-biphen-2-yl)-quinolin-6-yl]-3-cyclohexyl-1H-indole-6-carboxylic acid] | 95.9 | 
Cc1nc(C)c(-c2ccc3cc(-c4c(C5CCCCC5)c5ccc(C(=O)O)cc5n4CC(=O)N4CCC(C(=O)O)CC4)ccc3n2)s1 [Compound 241, 1-[2-(4-Carboxy-piperidin-1-yl)-2-oxo-ethyl]-3-cyclohexyl-2-[2-(2,4-dimethyl-thiazol-5-yl)-quinolin-6-yl]-1H-indole-6-carboxylic acid] | 94.1 | 
O=C(O)c1ccc2c(C3CCCCC3)c(-c3ccc(-c4cccc([N+](=O)[O-])c4)cc3)n(CC(=O)N3CCOCC3)c2c1 [Compound 310, 3-Cyclohexyl-2-(3′-nitro-biphenyl-4-yl)-1-(2-morpholin-4-yl-2-oxo-ethyl)-1H-indole-6-carboxylic acid] | 99.6 | 
C=Cc1ccc(-c2ccc(-c3c(C4CCCCC4)c4ccc(C(=O)O)cc4n3CC(=O)N3CCOCC3)cc2)cc1 [Compound 314, 3-Cyclohexyl-1-(2-morpholin-4-yl-2-oxo-ethyl)-2-(4′-vinyl-biphenyl-4-yl)-1H-indole-6-carboxylic acid] | 98 | 
COc1cc(OC)cc(-c2ccc3cc(-c4c(C5CCCCC5)c5ccc(C(=O)O)cc5n4CC(=O)N4CCOCC4)ccc3n2)c1 [Compound 251, 3-Cyclohexyl-2-[2-(3,5-dimethoxy-phenyl)-quinolin-6-yl]-1-(2-morpholin-4-yl-2-oxo-ethyl)-1H-indole-6-carboxylic acid] | 98.5 | 
COc1ccc(-c2ccc3cc(-c4c(C5CCCCC5)c5ccc(C(=O)O)cc5n4CC(=O)N4CCOCC4)ccc3n2)c(F)c1 [Compound 257, 3-Cyclohexyl-2-[2-(2-fluoro-4-methoxy-phenyl)-quinolin-6-yl]-1-(2-morpholin-4-yl-2-oxo-ethyl)-1H-indole-6-carboxylic acid] | 98.6 | 
Cc1nc(C)c(-c2ccc3cc(-c4c(C5CCCCC5)c5ccc(C(=O)O)cc5n4Cc4ccccc4)ccc3n2)s1 [Compound 287, 1-Benzyl-3-cyclohexyl-2-[2-(2,4-dimethyl-thiazol-5-yl)-quinolin-6-yl]-1H-indole-6-carboxylic acid] | 95.2 | 
Cc1nc(C)c(-c2ccc3cc(-c4c(C5CCCCC5)c5ccc(C(=O)O)cc5n4Cc4ccncc4)ccc3n2)s1 [Compound 289, 3-Cyclohexyl-2-[2-(2,4-dimethyl-thiazol-5-yl)-quinolin-6-yl]-1-pyridin-4-ylmethyl-1H-indole-6-carboxylic acid] | 95.7 | 

Other lines, results leading:

inhibition at 1 µM [%] | % inhibition @ 1 μM [%] | Compound
97.5 |  | Cc1ccccc1-c1ccc2cc(-c3c(C4CCCCC4)c4ccc(C(=O)O)cc4n3CC(=O)N3CCOCC3)ccc2n1 [Compound 232, 3-Cyclohexyl-1-(2-morpholin-4-yl-2-oxo-ethyl)-2-(2-o-tolyl-quinolin-6-yl)-1H-indole-6-carboxylic acid]
93.6 |  | O=C(O)c1ccc2c(C3CCCCC3)c(-c3ccc4nc(-c5ccncc5)ccc4c3)n(CC(=O)N3CCOCC3)c2c1 [Compound 325, 3-Cyclohexyl-1-(2-morpholin-4-yl-2-oxo-ethyl)-2-(2-pyridin-4-yl-quinolin-6-yl)-1H-indole-6-carboxylic acid]
 | 98.4 | O=C(O)c1ccc2c(C3CCCCC3)c(-c3ccc4nc(-c5nccs5)ccc4c3)n(CC(=O)N3CCOCC3)c2c1 [Compound 227, 1-[N-morpholinocarbonylmethyl]-2-[2-thiazol-2-ylquinolin-6-yl]-3-cyclohexyl-1H-indole-6-carboxylic acid]
100 |  | Cn1cccc1-c1ccc2cc(-c3c(C4CCCCC4)c4ccc(C(=O)O)cc4n3CC(=O)N3CCOCC3)ccc2n1 [Compound 271, 3-Cyclohexyl-2-[2-(1-methyl-1H-pyrrol-2-yl)-quinolin-6-yl]-1-(2-morpholin-4-yl-2-oxo-ethyl)-1H-indole-6-carboxylic acid]

From patent US20060211698A1, “Bicyclic heteroaryl derivatives for treating viruses” (Genelabs, Inc., priority 2005, published 2006)
